These results are taken from patent US10184933B2, “Compositions, systems and methods for gene expression noise drug screening and uses thereof” (priority 2013, dated 2019).

The test system of one test is HIV-1 LTR promoter. In kind it is cell-based.
The subject of test [1] is latent HIV-1 in JLat 8.6 cells. In kind it is cell-based.
The mark [2] stands for this setting: Pharmakon 1600 library, 10 uM, 24 hours, FIG. 10.

Counter-ions that a name gives are not always drawn. Like-named read-outs stand apart in the source and are kept apart here.

Turning to `O=C(O)CCCc1ccccc1` [V59, phenylbutyric acid], the “identified as variability enhancer (VE) in noise screen” value (“identified as variability enhancer” below) in the test with HIV-1 LTR promoter is “variability enhancers”. Also, the “synergy in reactivation of HIV-1 latency” value in test [1] was “synergized”.

`Oc1ccc(O)cc1` [V76, hydroquinone]: the “identified as variability enhancer” value in the test with HIV-1 LTR promoter is given as “variability enhancers”. For the same molecule, in test [1], the “synergy in reactivation of HIV-1 latency” value is recorded as “synergized”.

With `CCN(CC)CCNC(=O)c1cc(Cl)c(N)cc1OC` [V53, Metoclopramide hydrochloride], in the test on HIV-1 LTR promoter (setting [2]), the “identified as variability enhancer” value is on record as “variability enhancers”. In test [1], the “synergy in reactivation of HIV-1 latency” value is listed as “synergized”.

In the case of `CNCCC(Oc1ccc(C(F)(F)F)cc1)c1ccccc1` (centres unmarked) [V50, Fluoxetine hydrochloride], in the test on HIV-1 LTR promoter, the “identified as variability enhancer” value is “variability enhancers”. The “synergy in reactivation of HIV-1 latency” value in test [1] is listed as “synergized”.

Regarding colesevalam hydrochloride [V60], the “identified as variability enhancer” value in the test on HIV-1 LTR promoter (setting [2]) is listed as “variability enhancers”. Further, in test [1], the “synergy in reactivation of HIV-1 latency” value is “synergized”.

As for `CC(C)NCC(O)c1ccc(O)c(O)c1.Cl` (racemic) [V86, (±)-Isoproterenol hydrochloride], in the test with HIV-1 LTR promoter, the “identified as variability enhancer” value was “variability enhancers”. Moreover, in test [1], the “synergy in reactivation of HIV-1 latency” value is on record as “synergized”.

As for acetophenazine maleate [V12], the “identified as variability enhancer” value in the test with HIV-1 LTR promoter is listed as “variability enhancers”. In addition, in test [1], the “synergy in reactivation of HIV-1 latency” value is “synergized”.

As to `CCCc1nc2c(C)cc(-c3nc4ccccc4n3C)cc2n1Cc1ccc(-c2ccccc2C(=O)O)cc1` [V62, telmisartan], the “identified as variability enhancer” value in the test on HIV-1 LTR promoter (setting [2]) is “variability enhancers”. For the same molecule, the “synergy in reactivation of HIV-1 latency” value in test [1] is reported as “synergized”.

As for sucralfate [V79], the “identified as variability enhancer” value in the test with HIV-1 LTR promoter (setting [2]) was “variability enhancers”. In test [1], the “synergy in reactivation of HIV-1 latency” value is “synergized”.

Consider `Nc1ccc(S(=O)(=O)Nc2cnc3ccccc3n2)cc1` [V42, sulfaquinoxaline sodium], for which the “identified as variability enhancer” value in the test on HIV-1 LTR promoter (setting [2]) is recorded as “variability enhancers”. In addition, in test [1], the “synergy in reactivation of HIV-1 latency” value was “synergized”.

With `COc1ccccc1O` [V92, guaiacol], in the test on HIV-1 LTR promoter (setting [2]), the “identified as variability enhancer” value was “variability enhancers”. Moreover, the “synergy in reactivation of HIV-1 latency” value in test [1] was “synergized”.

As for `O=[N+]([O-])OCC(CO[N+](=O)[O-])O[N+](=O)[O-]` [V100, nitroglycerin], in the test on HIV-1 LTR promoter (setting [2]), the “identified as variability enhancer” value was “variability enhancers”. For the same molecule, the “synergy in reactivation of HIV-1 latency” value in test [1] was “synergized”.

For the molecule `C#CCN(C)Cc1ccccc1` [V61, Pargyline hydrochloride], the “identified as variability enhancer” value with HIV-1 LTR promoter (setting [2]) is “variability enhancers”. The “synergy in reactivation of HIV-1 latency” value in test [1] is “synergized”.

As to `c1ccc2[nH]c(-c3cscn3)nc2c1` [V33, thiabendazole], in the test on HIV-1 LTR promoter (setting [2]), the “identified as variability enhancer” value is “variability enhancers”. Also, in test [1], the “synergy in reactivation of HIV-1 latency” value is on record as “synergized”.

Consider `COCCCOc1ccnc(C[S+]([O-])c2nc3ccccc3[nH]2)c1C` (centres unmarked) [V93, rabeprazole sodium], for which the “identified as variability enhancer” value with HIV-1 LTR promoter (setting [2]) is recorded as “variability enhancers”. The “synergy in reactivation of HIV-1 latency” value in test [1] is listed as “synergized”.

Consider `CC[C@H]1OC(=O)[C@H](C)[C@@H](O[C@H]2C[C@@](C)(OC)[C@@H](O)[C@H](C)O2)[C@H](C)[C@@H](O[C@@H]2O[C@H](C)C[C@H](N(C)C)[C@H]2O)[C@](C)(O)C[C@@H](C)CN(C)[C@H](C)[C@@H](O)[C@]1(C)O` [V43, azithromycin], for which the “identified as variability enhancer” value in the test on HIV-1 LTR promoter (setting [2]) was “variability enhancers”. For the same molecule, the “synergy in reactivation of HIV-1 latency” value in test [1] is “synergized”.

For the molecule `COc1ccc2c(c1)c(CC(=O)O)c(C)n2C(=O)c1ccc(Cl)cc1` [V18, Indomethacin], in the test on HIV-1 LTR promoter (setting [2]), the “identified as variability enhancer” value was “variability enhancers”. In test [1], the “synergy in reactivation of HIV-1 latency” value is recorded as “synergized”.

As for `C[C@]12CC[C@H]3[C@@H](CC[C@@]45O[C@@H]4C(O)=C(C#N)C[C@]35C)[C@@H]1CC[C@@H]2O` [V26, trilostane], in the test with HIV-1 LTR promoter (setting [2]), the “identified as variability enhancer” value is “variability enhancers”. Further, the “synergy in reactivation of HIV-1 latency” value in test [1] is on record as “synergized”.

As for `CC(C)(C)NC(=O)[C@H]1CC[C@H]2[C@@H]3CC[C@H]4NC(=O)C=C[C@]4(C)[C@H]3CC[C@]12C` [V37, finasteride], the “identified as variability enhancer” value in the test on HIV-1 LTR promoter (setting [2]) is recorded as “variability enhancers”. In test [1], the “synergy in reactivation of HIV-1 latency” value is recorded as “synergized”.

As for `CC(C)[C@H](N)C(=O)OCC(CO)OCn1cnc2c(=O)nc(N)[nH]c21` (some centres unmarked) [V80, valganciclovir hydrochloride], in the test on HIV-1 LTR promoter (setting [2]), the “identified as variability enhancer” value is “variability enhancers”. For the same molecule, the “synergy in reactivation of HIV-1 latency” value in test [1] is on record as “synergized”.

With colistin sulfate [V45], the “identified as variability enhancer” value in the test with HIV-1 LTR promoter (setting [2]) was “variability enhancers”. Further, the “synergy in reactivation of HIV-1 latency” value in test [1] (with one or more of PMA, prostratin, TNFα, and bryostatin, FIG. 11) was “synergized”.

As to `NCCc1cc(O)c(O)cc1O` [V25, oxidopamine hydrochloride], in the test with HIV-1 LTR promoter (setting [2]), the “identified as variability enhancer” value is recorded as “variability enhancers”. In test [1], the “synergy in reactivation of HIV-1 latency” value is listed as “synergized”.

Regarding `COc1c(C)c2c(c(O)c1C/C=C(\C)CCC(=O)O)C(=O)OC2` [V95, mycophenolic acid], in the test on HIV-1 LTR promoter (setting [2]), the “identified as variability enhancer” value is listed as “variability enhancers”. In addition, the “synergy in reactivation of HIV-1 latency” value in test [1] was “synergized”.

In the case of `CC(C)(CO)[C@@H](O)C(=O)NCCCO` [V90, dexpanthenol], the “identified as variability enhancer” value in the test with HIV-1 LTR promoter (setting [2]) was “variability enhancers”. Also, the “synergy in reactivation of HIV-1 latency” value in test [1] is on record as “synergized”.

Turning to `COc1ccccc1OCCNCC(O)COc1cccc2[nH]c3ccccc3c12` (centres unmarked) [V84, carvedilol], the “identified as variability enhancer” value in the test on HIV-1 LTR promoter (setting [2]) was “variability enhancers”. Further, the “synergy in reactivation of HIV-1 latency” value in test [1] is recorded as “synergized”.

For `O=C(O)[C@H]1/C(=C/CO)O[C@@H]2CC(=O)N21` [V85, clavulanate lithium], in the test with HIV-1 LTR promoter (setting [2]), the “identified as variability enhancer” value is reported as “variability enhancers”. Besides, the “synergy in reactivation of HIV-1 latency” value in test [1] is on record as “synergized”.

On to `CCN(C(C)=O)c1cccc(-c2ccnc3c(C#N)cnn23)c1` [V97, zaleplon], for which the “identified as variability enhancer” value in the test on HIV-1 LTR promoter (setting [2]) was “variability enhancers”. Further, in test [1], the “synergy in reactivation of HIV-1 latency” value was “synergized”.

As to `COc1cnc(NS(=O)(=O)c2ccc(N)cc2)nc1` [V41, sulfameter], in the test on HIV-1 LTR promoter (setting [2]), the “identified as variability enhancer” value is listed as “variability enhancers”. In addition, the “synergy in reactivation of HIV-1 latency” value in test [1] was “synergized”.

Regarding `CC(C)NCC(O)c1ccc(NS(C)(=O)=O)cc1` (centres unmarked) [V83, sotalol hydrochloride], in the test with HIV-1 LTR promoter (setting [2]), the “identified as variability enhancer” value is “variability enhancers”. Moreover, the “synergy in reactivation of HIV-1 latency” value in test [1] is listed as “synergized”.

On to `CCN(CC)CC#CCOC(=O)C(O)(c1ccccc1)C1CCCCC1` (centres unmarked) [V48, oxybutynin chloride], for which the “identified as variability enhancer” value in the test on HIV-1 LTR promoter was “variability enhancers”. For the same molecule, the “synergy in reactivation of HIV-1 latency” value in test [1] is reported as “synergized”.

In the case of `CO[C@H]1C[C@H](O[C@@H]2/C(C)=C/C[C@@H]3C[C@@H](C[C@]4(CC[C@H](C)[C@@H](C5CCCCC5)O4)O3)OC(=O)[C@@H]3C=C(C)/C(=N/O)[C@H]4OC/C(=C\C=C\[C@@H]2C)[C@]43O)O[C@@H](C)[C@@H]1O` [V77, selamectin], in the test on HIV-1 LTR promoter, the “identified as variability enhancer” value is “variability enhancers”. The “synergy in reactivation of HIV-1 latency” value in test [1] is recorded as “synergized”.

In the case of `CC(=O)Nc1c(I)cc(I)c(C(=O)O)c1I` [V102, acetriazoic acid], the “identified as variability enhancer” value in the test on HIV-1 LTR promoter is “variability enhancers”. The “synergy in reactivation of HIV-1 latency” value in test [1] is recorded as “synergized”.

Take `Cc1cc(CC(=O)O)n(C)c1C(=O)c1ccc(Cl)cc1` [V31, zomepirac sodium]: in the test on HIV-1 LTR promoter (setting [2]), the “identified as variability enhancer” value is “variability enhancers”. Also, the “synergy in reactivation of HIV-1 latency” value in test [1] was “synergized”.

`CNC(C)C(O)c1ccccc1` (centres unmarked) [V87, racephedrine hydrochloride]: the “identified as variability enhancer” value in the test with HIV-1 LTR promoter (setting [2]) is recorded as “variability enhancers”. In test [1], the “synergy in reactivation of HIV-1 latency” value was “synergized”.

For `C=CCC1(C(C)CCC)C(=O)N=C(S)NC1=O` (centres unmarked) [V8, thiamylal sodium], in the test with HIV-1 LTR promoter (setting [2]), the “identified as variability enhancer” value was “variability enhancers”. Moreover, the “synergy in reactivation of HIV-1 latency” value in test [1] is “synergized”.

For `Cc1cc(C(C#N)c2ccc(Cl)cc2)c(Cl)cc1NC(=O)c1cc(I)cc(I)c1O` (centres unmarked) [V34, closantel], the “identified as variability enhancer” value in the test on HIV-1 LTR promoter (setting [2]) is “variability enhancers”. Further, in test [1], the “synergy in reactivation of HIV-1 latency” value was “synergized”.

Regarding `NC(=O)C[S+]([O-])C(c1ccccc1)c1ccccc1` (centres unmarked) [V28, modafinil], the “identified as variability enhancer” value with HIV-1 LTR promoter (setting [2]) is listed as “variability enhancers”. The “synergy in reactivation of HIV-1 latency” value in test [1] was “synergized”.

As to `CCN(CC)CCNC(=O)c1ccc(N)cc1` [V38, Procainamide hydrochloride], the “identified as variability enhancer” value in the test with HIV-1 LTR promoter (setting [2]) is on record as “variability enhancers”. Besides, the “synergy in reactivation of HIV-1 latency” value in test [1] is listed as “synergized”.

On to `COc1ccc(CCN(C)CCCC(C#N)(c2ccc(OC)c(OC)c2)C(C)C)cc1OC` (racemic) [V24, (±)-Verapamil hydrochloride], for which the “synergy in reactivation of HIV-1 latency” value in test [1] is reported as “synergized”.

As for `C[N+](C)(C)CC(O)CC(=O)[O-].Cl` (centres unmarked) [carnitine hydrochloride], in the test with HIV-1 LTR promoter (setting [2]), the “identified as variability enhancer” value is listed as “variability enhancers”.

Turning to `CS(=O)(=O)OCCCCOS(C)(=O)=O` [V69, busulfan], the “identified as variability enhancer” value with HIV-1 LTR promoter (setting [2]) was “variability enhancers”.

Take `Nc1nc2[nH]cc(CCc3ccc(C(=O)N[C@@H](CCC(=O)O)C(=O)O)cc3)c2c(=O)[nH]1` [V74, pemetrexed]: the “identified as variability enhancer” value in the test with HIV-1 LTR promoter (setting [2]) is “variability enhancers”.

For `Cc1ccc2c(Br)cc(Br)c(OC(=O)c3ccccc3)c2n1` [broxaldine], the “identified as variability suppressor (VS) in noise screen” value in the test with HIV-1 LTR promoter (Pharmakon 1600 library, 10 uM, 24 hours, FIG. 12) was “variability suppressors”.

In the case of `COC(=O)Nc1nc2ccc([S+]([O-])c3ccccc3)cc2[nH]1` (centres unmarked) [oxfendazole], in the test on HIV-1 LTR promoter (setting [2]), the “identified as variability enhancer” value is listed as “variability enhancers”.

As to `c1ccc(C2CN3CCSC3=N2)cc1` (centres unmarked) [tetramizole hydrochloride], the “identified as variability enhancer” value in the test with HIV-1 LTR promoter is listed as “variability enhancers”.
